The text below walks through data of ChEMBL document CHEMBL1201862, “PubChem BioAssay data set” (2004).

Some test systems named below: SNB-19; SK-MEL-28; HT-29; HL-60; UO-31; SF-295; CCRF-CEM; IGROV-1; SK-OV-3; OVCAR-3; SK-MEL-2; NCI-H522; A498; CAKI-1; RXF 393; SW-620.
What all share (assay): NCI anticancer screen, dose series, 48 h

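A five-concentration, 48-hour dose response in 96-well plates underlies each endpoint, interpolated linearly between surrounding concentrations. Abbreviation: GI50, concentration required for 50% inhibition of growth.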 Activity calls are given as the source filed them. Cut-off read from the data, not from the text of the source: active = GI50 up to about 1.1 µM and inactive = higher.

For the compound `CCN(CC)/C(=C\Cl)Nc1ccccn1.[O-][Cl+3]([O-])([O-])O`, the GI50 in the assay on SNB-19, in the assay with SK-MEL-28, in the assay on HT-29, in the assay on HL-60, in the assay on UO-31 and with SF-295 was > 100 µM (inactive) throughout. In addition, the GI50 in the assay on CCRF-CEM, in the assay on IGROV-1, with SK-OV-3, in the assay with OVCAR-3, in the assay on SK-MEL-2 and in the assay with NCI-H522 was > 100 µM (inactive) in each case. Besides, the GI50 with A498, in the assay on CAKI-1, in the assay with RXF 393 and in the assay with SW-620 was > 100 µM (inactive) each time.

For the compound `COc1cc(O)c(C(=O)C2Cc3ccccc32)c(OC)c1` (configuration not stated), the GI50 in the assay on SNB-19 is > 100 µM (inactive); in the assay with HT-29 it was 35.3 µM (inactive); with HL-60 it was 13 µM (inactive); with UO-31, 33.5 µM (inactive); with SF-295, 86.1 µM (inactive); in the assay with CCRF-CEM, 19.8 µM (inactive). The GI50 with IGROV-1 was > 100 µM (inactive); in the assay with SK-OV-3, > 100 µM (inactive); in the assay on SK-MEL-2, 34.3 µM (inactive); in the assay on NCI-H522, 32.7 µM (inactive); in the assay on A498, 30 µM (inactive); with CAKI-1, 25.6 µM (inactive). Also, the GI50 in the assay on RXF 393 is 20.3 µM (inactive); in the assay with SW-620, 59.7 µM (inactive).

Take `Nn1c(-c2ccccc2Cl)nc2ccccc2c1=O`: the GI50 in the assay with SNB-19, in the assay on SK-MEL-28, in the assay on HT-29, with HL-60, in the assay with UO-31 and with SF-295 was > 100 µM (inactive) in each case. In addition, the GI50 in the assay on CCRF-CEM, with IGROV-1, in the assay with SK-OV-3, in the assay with OVCAR-3, with SK-MEL-2 and in the assay with NCI-H522 was > 100 µM (inactive) throughout. The GI50 in the assay on A498, with CAKI-1 and in the assay with SW-620 was > 100 µM (inactive) in each case.

`CCCNC(=O)c1cc2ccccc2cc1C(=O)OC`: the GI50 in the assay with SNB-19 was > 100 µM (inactive); in the assay with SK-MEL-28, > 100 µM (inactive); with HT-29, > 100 µM (inactive); in the assay with HL-60, > 100 µM (inactive); in the assay with UO-31 it was 58.5 µM (inactive); in the assay on SF-295 it was > 100 µM (inactive). For the same compound, the GI50 in the assay on CCRF-CEM, in the assay with IGROV-1, in the assay on SK-OV-3, in the assay on OVCAR-3, in the assay with SK-MEL-2 and in the assay with NCI-H522 was > 100 µM (inactive) each time. In addition, the GI50 with A498, in the assay on CAKI-1 and with SW-620 was > 100 µM (inactive) each time.

For `Cc1nc(Nc2ccc(Cl)cc2)sc1C(=O)NNc1ccc([N+](=O)[O-])cc1[N+](=O)[O-]`, the GI50 with SNB-19 was 16.7 µM (inactive); with SK-MEL-28, 19.9 µM (inactive); in the assay on HL-60 it was 16 µM (inactive); in the assay with UO-31, 14.2 µM (inactive); in the assay with SF-295, 18.1 µM (inactive); in the assay with CCRF-CEM, 17.8 µM (inactive). In addition, the GI50 is 20.9 µM (inactive) with IGROV-1; 29.2 µM (inactive) in the assay on SK-OV-3; 19.3 µM (inactive) with OVCAR-3; 17.9 µM (inactive) with SK-MEL-2; 14 µM (inactive) with NCI-H522; 15.9 µM (inactive) in the assay on A498. In addition, the GI50 with CAKI-1 is 23.6 µM (inactive); with RXF 393, 16.3 µM (inactive); with SW-620, 22 µM (inactive).

For the compound `CCCCCCCC(=O)OCC1OC(n2cc(F)c(=O)[nH]c2=O)C(N)C(OC(=O)CCCCCCC)C1O` (configuration not stated), the GI50 is 17.5 µM (inactive) in the assay on SNB-19; 17.3 µM (inactive) with SK-MEL-28; 19.3 µM (inactive) in the assay with HT-29; 20.2 µM (inactive) in the assay with HL-60; 19.5 µM (inactive) in the assay with UO-31; 17.5 µM (inactive) in the assay with SF-295. In addition, the GI50 was 17.6 µM (inactive) with CCRF-CEM; 20.3 µM (inactive) in the assay with IGROV-1; 28.8 µM (inactive) with SK-OV-3; 20.8 µM (inactive) in the assay on OVCAR-3; 18.8 µM (inactive) in the assay on SK-MEL-2; 14.5 µM (inactive) with NCI-H522. Besides, the GI50 was 20.3 µM (inactive) in the assay on A498, 16.8 µM (inactive) in the assay with CAKI-1, 18 µM (inactive) with RXF 393 and 18.4 µM (inactive) in the assay with SW-620.

With `CCN(CC)CCOC(c1ccccc1)c1ccccc1.CCOC(=O)Nc1ccc(S(=O)(=O)OC)cc1.CCOC(=O)Nc1ccc(S(=O)(=O)OC)cc1.Nc1ccc(C(=O)O)c(O)c1`, the GI50 with SNB-19, in the assay on SK-MEL-28, in the assay on HT-29, in the assay on HL-60, in the assay on UO-31 and in the assay on SF-295 was > 100 µM (inactive) throughout. Moreover, the GI50 in the assay on CCRF-CEM, in the assay with IGROV-1, in the assay with SK-OV-3, in the assay on OVCAR-3, in the assay with SK-MEL-2 and in the assay on NCI-H522 was > 100 µM (inactive) each time. Further, the GI50 with A498, with CAKI-1, in the assay on RXF 393 and in the assay on SW-620 was > 100 µM (inactive) each time.

Regarding `CCN(CC)C1CC(O[C@H]2C[C@](O)(C(=O)CO)Cc3c(O)c4c(c(O)c32)C(=O)c2c(OC)cccc2C4=O)OC(C)C1O` (some centres not stated), the GI50 with SNB-19 was 0.103 µM (active); in the assay on SK-MEL-28, 0.0764 µM (active); with HT-29, < 0.0252 µM (active); with HL-60, 0.106 µM (active); with UO-31, 0.0604 µM (active); in the assay on SF-295, 0.0512 µM (active). For the same compound, the GI50 in the assay with CCRF-CEM was 0.122 µM (active); with IGROV-1, 0.0859 µM (active); in the assay on SK-OV-3 it was 0.299 µM (active); in the assay on OVCAR-3, 0.126 µM (active); in the assay on SK-MEL-2 it was 0.067 µM (active); in the assay with NCI-H522, < 0.0256 µM (active). Further, the GI50 is 0.0236 µM (active) in the assay with A498, 0.232 µM (active) with CAKI-1, 0.0446 µM (active) in the assay on RXF 393 and < 0.0219 µM (active) with SW-620.

As to `O=C1OC(CC(=O)c2ccc(Cl)c(Cl)c2)C(Cl)=C1Cl` (configuration not stated), the GI50 is 79.3 µM (inactive) in the assay with SNB-19; > 100 µM (inactive) in the assay on SK-MEL-28; > 100 µM (inactive) in the assay on HT-29; 82 µM (inactive) with HL-60; > 100 µM (inactive) in the assay with UO-31; > 100 µM (inactive) in the assay on SF-295. The GI50 in the assay with CCRF-CEM is 20.8 µM (inactive); in the assay on IGROV-1, > 100 µM (inactive); in the assay on SK-OV-3 it was > 100 µM (inactive); in the assay with OVCAR-3, > 100 µM (inactive); with SK-MEL-2 it was > 100 µM (inactive); in the assay with NCI-H522 it was 22.5 µM (inactive). Further, the GI50 with A498 is 31.2 µM (inactive); in the assay with CAKI-1 it was > 100 µM (inactive); in the assay with RXF 393, > 100 µM (inactive); in the assay with SW-620, > 100 µM (inactive).

Turning to `CC/C=C/c1cc2c(c3[nH]ccc13)[C@@H](C)CC2C.CC/C=C/c1cc2cc[nH]c2c2c1C(C)C[C@@H]2C.CCc1cc2c(c3[nH]ccc13)[C@@H](C)CC2C` (some centres not stated), the GI50 with SNB-19 was 19.2 µM (inactive); with SK-MEL-28, 15.7 µM (inactive); in the assay with HT-29, 14.4 µM (inactive); with HL-60 it was 18.3 µM (inactive); in the assay on UO-31 it was 16.6 µM (inactive); in the assay on SF-295, 16.6 µM (inactive). Moreover, the GI50 in the assay with SK-MEL-2 is 15.4 µM (inactive); in the assay on NCI-H522, 15.6 µM (inactive); in the assay on CAKI-1, 15.1 µM (inactive); in the assay with RXF 393 it was 12.2 µM (inactive); in the assay with SW-620, 16.9 µM (inactive).

As for `CCOC(=O)C(C)Sc1nnc(COc2ccccc2OC)n1-c1ccccc1` (configuration not stated), the GI50 in the assay on SNB-19 was > 100 µM (inactive); in the assay with SK-MEL-28 it was > 100 µM (inactive); in the assay with HT-29, 75.5 µM (inactive); in the assay on HL-60 it was 32.8 µM (inactive); in the assay with UO-31, > 100 µM (inactive); in the assay on SF-295 it was > 100 µM (inactive). In addition, the GI50 is 53.7 µM (inactive) with CCRF-CEM; > 100 µM (inactive) in the assay with IGROV-1; > 100 µM (inactive) in the assay with SK-OV-3; > 100 µM (inactive) in the assay with OVCAR-3; > 100 µM (inactive) with SK-MEL-2; 42 µM (inactive) with NCI-H522. Also, the GI50 in the assay on A498 was 0.268 µM (active); with CAKI-1, > 100 µM (inactive); in the assay with RXF 393, 52.4 µM (inactive); in the assay on SW-620, 19.2 µM (inactive).

On to `Cc1ncc(CCl)c2c1OC(C)(C)OC2`, for which the GI50 is 63.8 µM (inactive) in the assay on SNB-19; 24 µM (inactive) in the assay with SK-MEL-28; 52.2 µM (inactive) with HT-29; 27 µM (inactive) in the assay on HL-60; > 100 µM (inactive) in the assay with UO-31; > 100 µM (inactive) in the assay on SF-295. The GI50 is 47.8 µM (inactive) in the assay on CCRF-CEM; > 100 µM (inactive) with IGROV-1; > 100 µM (inactive) in the assay with SK-OV-3; 26.1 µM (inactive) with OVCAR-3; > 100 µM (inactive) in the assay on SK-MEL-2; 17 µM (inactive) in the assay on NCI-H522. In addition, the GI50 is > 100 µM (inactive) in the assay on A498, 16 µM (inactive) in the assay with RXF 393 and 18.7 µM (inactive) in the assay with SW-620.

For `[O-][S+](Cc1cc2c(cc1Br)OCO2)c1ccccc1` (configuration not stated), the GI50 is > 100 µM (inactive) in the assay on SNB-19; 98.2 µM (inactive) in the assay with SK-MEL-28; 34 µM (inactive) with HT-29; 21.4 µM (inactive) with HL-60; 47.5 µM (inactive) with UO-31; > 100 µM (inactive) with SF-295. Also, the GI50 in the assay with CCRF-CEM was 19.6 µM (inactive); in the assay on IGROV-1 it was 39.4 µM (inactive); in the assay with SK-OV-3 it was > 100 µM (inactive); with OVCAR-3, 35.3 µM (inactive); in the assay on SK-MEL-2, > 100 µM (inactive); with NCI-H522, 21.6 µM (inactive). The GI50 in the assay with A498 was > 100 µM (inactive); in the assay on CAKI-1, 51.5 µM (inactive); in the assay with RXF 393 it was 40.6 µM (inactive); with SW-620, 15.4 µM (inactive).
